{"source": "patent US20110003772A1", "about": "“USE OF SPHINGOLIPIDS IN THE TREATMENT OF TYPE 2 DIABETES MELLITUS, INSULIN RESISTANCE AND METABOLIC SYNDROME” (priority 2004, published 2011)", "key": {"PPAR-α": {"molecular_target": "T1, PPAR-α (Homo sapiens, UniProt Q07869)", "T1 sequence (Q07869 1-468)": "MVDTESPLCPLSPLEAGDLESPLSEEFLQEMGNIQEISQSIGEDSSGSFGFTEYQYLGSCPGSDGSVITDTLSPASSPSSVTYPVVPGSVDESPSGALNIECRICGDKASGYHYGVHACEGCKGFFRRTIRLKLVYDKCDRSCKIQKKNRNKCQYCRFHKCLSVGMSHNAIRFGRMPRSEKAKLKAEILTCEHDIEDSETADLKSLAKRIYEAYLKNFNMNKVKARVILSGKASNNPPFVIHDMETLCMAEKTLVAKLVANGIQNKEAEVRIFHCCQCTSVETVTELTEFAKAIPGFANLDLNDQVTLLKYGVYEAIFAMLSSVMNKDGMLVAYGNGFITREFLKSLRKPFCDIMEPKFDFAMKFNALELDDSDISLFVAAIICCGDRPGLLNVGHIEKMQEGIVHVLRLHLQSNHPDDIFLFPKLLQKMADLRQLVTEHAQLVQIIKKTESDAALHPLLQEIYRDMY", "details": "literature, Van Veldhoven et al., 2000; cited from earlier work"}, "[1]": {"tested_on": "insulin resistant mice (male ApoE3*Leiden mice)", "test": "Hyperinsulinemic euglycemic clamp in insulin resistant mice on high fat, high fructose diet", "format": "in vivo", "details": "0.3% (w/w) in high fat, compared to control group", "source_text": "(§1) The “gold standard” for insulin resistance is a test called the hyperinsulinemic euglycemic clamp study. It is a complicated and expensive study in which insulin and glucose is infused intravenously at several different doses to see what levels of insulin control different levels of glucose. Essentially, the method of Koopmans et al., 2001 and Voshol et al., 2001.\nMale ApoE3*Leiden mice were fed with a high fat, high fructose diet (24% casein, 17% corn starch, 14% cellulose, 1% cholesterol, 24% bovine lard, 20% fructose; all w/w). After 8 weeks all mice in this group were moderately insulin resistant and were strongly insulin resistant after 18 weeks. Two parallel groups of mice (n=8) were fed for another 10 weeks the same diet, but containing 0.3% (w/w of the dry food) of either egg sphingomyelin or phytosphingosine.\nIn another parallel experiment, three groups of 8 mice each were fed the same high fat, high fructose diet for 18 weeks. One group received 0.3% egg sphingomyelin during the whole period, one group received 0.3% phytosphingosine during the whole period and the last group served as the control group (i.e. received no additional sphingolipid).\n(§2) All mice were fasted overnight and anaesthetised by intraperitoneal injection of Hypnorm® (fentanyl-fluanisone) (0.5 ml/kg body weight) and midazolam (12.5 mg/kg body weight). Mice were kept anaesthetised by administering 50 μl of Hypnorm®/midazolam subcutaneous every 45 minutes.\n(§3) A needle filled with PBS was inserted into the tail vein and was connected to two pumps (Model 100 series, KdScienticic, PA, USA): one with an insulin solution consisting of 3057 μl PBS, 400 μl citrate (30 μg/μl) and 543 μl insulin (1 U/ml), and one pump with a solution of 6.25 g D-glucose in 50 ml PBS. Before the infusion with the two solutions was started, a capillary of blood was drawn from the tail tip. Subsequently a bolus of 30 μl of insulin was given and the pumps were started (50 μl/h). The mice were given rest for 30 minutes. Then every 10 minutes the glucose level was measured with a glucose handmeter (Freestyle, Disetronic Medical Systems AG, Burgdorf, Germany) and the glucose infusion rate was adjusted until the glucose concentration in the blood was constant for at least 20 minutes and a capillary of blood was drawn.\n(§4) The insulin and glucose levels in the capillaries were measured using a standard commercial kit, according to the manufacturer's instructions (Hexokinase method, Instruchemie); and insulin levels were measured by Ultrasensitive mouse insulin ELISA, enzyme immunoassay according to the manufacturer's instructions (Mercodia, Sweden)"}, "female ob/ob mice [2]": {"tested_on": "female ob/ob mice", "test": "Plasma parameters and body weight in 4 h fasted ob/ob mice fed chow or chow with 1% phytosphingosine", "format": "in vivo", "details": "for Body weight: mean ± SD of 10 mice; for Glucose (plasma) / Insulin (plasma): 4 h fasted, mean ± SD", "procedure": "20 female ob/ob mice (C57B1/6 background) were obtained from Charles River, The Netherlands and were acclimatized for a period of 2 weeks within the TNO-facilities. After a 4 hour fast, blood was drawn by tail bleeding and the animals were randomized according to body weight and plasma glucose levels. […] The mice were put on a regular chow diet (control) or regular chow supplemented with 1% phytosphingosine (1% PS). After three weeks of treatment a blood sample was drawn after a 4 hours fast and body weight was determined. […] The 1% PS treated mice maintained their initial body weight. […] We observed no differences in insulin levels between the groups."}, "female ob/ob mice [3]": {"tested_on": "female ob/ob mice", "test": "Hyperinsulinemic euglycemic clamp analysis in overnight fasted ob/ob mice", "format": "in vivo", "details": "1% PS diet; for Glucose (plasma) during clamp: overnight fasted", "procedure": "as §1, §2, §3, §4\n1.5 weeks after the last blood sample (necessary for full recovery of the mice) the ob/ob mice were fasted overnight and subjected to a hyperinsulinemic euglycemic clamp analysis. […]"}, "3T3-L1 adipocytes": {"tested_on": "3T3-L1 adipocytes", "details": "literature, Mei et al., 2002; cited from earlier work"}, "[4]": {"details": "high fructose diet during the last 10 weeks of the 18 week experiment"}, "[5]": {"details": "high fructose diet during whole 18 weeks"}, "[6]": {"details": "T = 0 (starting point, before treatment), 1% PS group"}, "[7]": {"details": "T = 3 (3 weeks of chow with 1% PS)"}}, "data": [{"molecule": "CCCCCCCCCCCCC/C=C/[C@@H](O)[C@H](CO)NC(C)=O", "note": "[N-acetyl-sphingenine]", "values": [{"measurement": "binding to the PPAR-α receptor", "setting": "PPAR-α", "value": "not able to bind"}]}, {"molecule": "phosphatidylcholine", "values": [{"measurement": "binding to the PPAR-α receptor", "setting": "PPAR-α", "value": "not able to bind"}]}, {"molecule": "CCCCCCCCCCCCC/C=C/[C@@H](O)[C@@H](N)CO", "note": "[sphingenine]", "values": [{"measurement": "binding to the PPAR-α receptor", "setting": "PPAR-α", "value": "strong binding ligands"}]}, {"molecule": "ceramide", "values": [{"measurement": "binding to the PPAR-α receptor", "setting": "PPAR-α", "value": "not able to bind"}]}, {"molecule": "CCCCCCCCCCCCCC[C@@H](O)[C@@H](O)[C@@H](N)CO", "note": "[phytosphingosine]", "values": [{"measurement": "infusion rate of glucose, percentage of the infusion rate in strongly insulin resistant control mice", "setting": "[1]; [4]", "value": 114, "unit": "%"}, {"measurement": "infusion rate of glucose, percentage of the infusion rate in strongly insulin resistant control mice", "setting": "[1]; [5]", "value": 102, "unit": "%"}, {"measurement": "Body weight", "setting": "female ob/ob mice [2]; [6]", "value": "42.2 ± 4.6", "unit": "g"}, {"measurement": "Glucose (plasma)", "setting": "female ob/ob mice [2]; [6]", "value": "23.9 ± 5.1", "unit": "mmol/L"}, {"measurement": "Insulin (plasma)", "setting": "female ob/ob mice [2]; [6]", "value": "25.8 ± 14.1", "unit": "ng/mL"}, {"measurement": "Insulin (plasma)", "setting": "female ob/ob mice [2]; [7]", "value": "22.3 ± 6.8", "unit": "ng/mL"}, {"measurement": "Glucose (plasma)", "setting": "female ob/ob mice [2]; T = 3 (3 weeks of chow with 1% PS), P < 0.01 vs. control", "value": "26.0 ± 7.0", "unit": "mmol/L"}, {"measurement": "Body weight", "setting": "female ob/ob mice [2]; [7]", "value": "41.7 ± 3.7", "unit": "g"}, {"measurement": "glucose infusion rate (GIR)", "setting": "female ob/ob mice [3]; vs. 46±8 in control ob/ob mice, P=0.001", "value": "4.5 ± 0.96", "unit": "mL/h/kg"}, {"measurement": "Glucose (plasma) during clamp", "setting": "female ob/ob mice [3]; Basal period (no insulin added)", "value": "7.3 ± 2.4", "unit": "mmol/L"}, {"measurement": "Glucose (plasma) during clamp", "setting": "female ob/ob mice [3]; Hyperinsulinemic period", "value": "4.8 ± 1.3", "unit": "mmol/L"}]}, {"molecule": "CCCCCCCCCCCCC/C=C/[C@@H](O)[C@H](CO)NC(C)=O", "note": "[C2-ceramide]", "values": [{"measurement": "antilipolytic action of insulin", "setting": "3T3-L1 adipocytes", "value": "decrease the antilipolytic action of insulin"}, {"measurement": "lipolysis", "setting": "3T3-L1 adipocytes", "value": "stimulate lipolysis"}]}, {"molecule": "sphingomyelin", "values": [{"measurement": "infusion rate of glucose, percentage of the infusion rate in strongly insulin resistant control mice", "setting": "[1]; [4]", "value": 102, "unit": "%"}, {"measurement": "infusion rate of glucose, percentage of the infusion rate in strongly insulin resistant control mice", "setting": "[1]; [5]", "value": 117, "unit": "%"}, {"measurement": "binding to the PPAR-α receptor", "setting": "PPAR-α", "value": "not able to bind"}]}, {"molecule": "CCCCCCCCCCCCCCC[C@@H](O)[C@@H](N)COP(=O)(O)O", "note": "[sphinganine-1-phosphate]", "values": [{"measurement": "binding to the PPAR-α receptor", "setting": "PPAR-α", "value": "not able to bind"}]}, {"molecule": "CCCCCCCCCCCCCCC[C@@H](O)[C@@H](N)CO", "note": "[sphinganine]", "values": [{"measurement": "binding to the PPAR-α receptor", "setting": "PPAR-α", "value": "strong binding ligands"}]}, {"molecule": "CCCCCCCCCCCCC/C=C/[C@@H](O)[C@H](CO)NC(=O)CCCCCCCCCCCCCCC", "note": "[N-hexadecanoyl-sphingenine]", "values": [{"measurement": "binding to the PPAR-α receptor", "setting": "PPAR-α", "value": "not able to bind"}]}]}
